Here are results for two compounds from patent EP0391077A1, “O56-alkyl derivatives of aglycone and pseudoaglycones of teicoplanin” (GRUPPO LEPETIT S.p.A., priority 1989, dated 1990).

Structures are written as SMILES. Structures can show the parent of a compound that is named as a salt.

The data set can be described thus: physchem. The class given is physicochemical. As to conditions: methylcellosolve:water 4:1, pKMCS. The method, then:
The potentiometric determinations reported in the examples are run in Methylcellosolve : water, 4:1 (v/v). An excess of 0.01 N HCl In this solvent mixture was added to the sample and the resulting solution was titrated with 0.01 N NaOH in the same solvent mixture. The pK value obtained under the conditions is reported below as pKMCS, wherein MCS stands for Methylcellosolve.

Compound `COC(=O)C1NC(=O)C2NC(=O)C(NC(=O)C3NC(=O)C4NC(=O)C(Cc5ccc(c(Cl)c5)Oc5cc3cc(c5OC(CCO)C(=O)O)Oc3ccc(cc3Cl)C2O)NC(=O)C(N)c2ccc(O)c(c2)Oc2cc(O)cc4c2)c2ccc(O)c(c2)-c2c(O)cc(O)cc21` (centres unmarked) [Compound 3, O⁵⁶ -(1-carboxy-3-hydroxypropyl)deglucoteicoplanin methyl ester hydrochloride] had a pKa of 6.

In turn, `COC(=O)C1NC(=O)C2NC(=O)C(NC(=O)C3NC(=O)C4NC(=O)C(Cc5ccc(c(Cl)c5)Oc5cc3cc(c5OCCN3CCCC3)Oc3ccc(cc3Cl)C2O)NC(=O)C(N)c2ccc(O)c(c2)Oc2cc(O)cc4c2)c2ccc(O)c(c2)-c2c(O)cc(O)cc21` (centres unmarked) [Compound 13, O⁵⁶-[2-(1-pyrrolidinyl)-ethyl]deglucoteicoplanin methyl ester dihydrochloride] gave a pKa of 6.4.
